Measurements as given in patent US20230113847A1, “[…] IMMUNE RESPONSE WITH CUPROUS COMPLEXES” (C LAB PHARMA INTERNATIONAL, S.A., priority 2020, published 2023).

How the values were obtained:
neuromuscular pain = settings: Day 28 in comparison to Day 0; subjects with neuromuscular pain; twice daily administration; placebo group showed upward trend
Source text: (§1) Dosing Regimen: Each participant was randomly assigned an identifier code and placed in either the Cunermuspir or placebo treatment groups at a 1:1 ratio. Participants were given 2 capsules on Day 0 and instructed to take the contents sublingually with a small meal. Starting on Day 1, participants were instructed to take one capsule orally in the morning with breakfast, and one capsule orally between lunch and dinner, with food, for a total of 2 capsules daily over the course of the study. Participants were instructed to take all capsules with adequate, but not excessive, amounts of liquid.

[1] = stated in description, relevance to route of administration
[2] = system: Neutrophil to Lymphocyte Ratio; settings: Day 28, twice daily administration
Description: (§2) Ethics: This study was reviewed by the Natural Health Products Directorate (NHPD), Health Canada and a research ethics board. This study was conducted in accordance with the principles established in the Declaration of Helsinki and its subsequent amendments. Informed consent was obtained from each subject at the screening visit prior to any study related activities. The clinical trial was conducted at KGK Synergize Inc. (London, ON, Canada).
(§3) Sample Collection: As depicted in FIG. 1, blood was collected from participants on the initial screening (Day −1), the first day of administering the treatment composition (Day 0), and on Day 28. Collected blood was analyzed to determine the complete blood count (CBC), electrolyte composition, and liver enzymes composition according to standardized procedures at LifeLabs (London, ON, Canada).
as §1

Neutrophils = settings: Day 28, twice daily administration; otherwise healthy subjects with chronic pain
Description: as §2, §3, §1

Lymphocytes = settings: Day 28, twice daily administration; otherwise healthy subjects with chronic pain
Description: as §2, §3, §1

Compound	SQIR scores in Symptom, Impact and Function Domains (neuromuscular pain)	pH of the complex [1]	neutrophil to lymphocyte ratio relative to the placebo group [2]	neutrophil numbers relative to the placebo group (Neutrophils)	lymphocyte numbers relative to the placebo group (Lymphocytes)
O=C(O)c1cccnc1.[Cu+] [Cu(I)NA2, cuprous nicotinic acid]	decreased scores	acidic pH	significant decrease	significant decrease	significant increase
NCC(=O)[O-].[Cu+] [Copper (I) glycinate, cuprous glycinate]	–	more neutral pH	–	–	–
